Test results as given in patent publication US11370763B2, “Compounds and compositions for treating conditions associated with NLRP activity” (Novartis AG, priority 2017, dated 2022).

Tested on: IL-1β production in PMA-differentiated THP-1 cells
Test: IL-1β production in PMA-differentiated THP-1 cells stimulated with gramicidin (hTHP-1 assay containing 2% fetal bovine serum; Procedures 1-3)
Type: cell-based, human
Conditions: Homo sapiens, THP-1, hTHP-1 assay containing 2% fetal bovine serum; class symbols; read-out: hTHP-1 IC50 (Average IC50 of compounds in hTHP-1 assay)
Method in brief: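 THP-1 cells differentiated with PMA (20 ng/ml, 16-18 h), replated in 2% FBS RPMI (50,000 cells/well), preincubated 1 h with compound (top final 100 μM, 3-fold steps, 0.37% DMSO), then stimulated 2 h with gramicidin (5 μM). Supernatant IL-1β measured by HTRF.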

| IC50 [µM] | SMILES |
| --- | --- |
| 0.04 to 0.2 | CC(C)c1cc(COC2CCCC2)cc(C(C)C)c1CC(=O)N=S(N)(=O)c1cnc(C(C)(C)O)s1 (stereo not drawn) [Example 141, N-(amino(2-(2-hydroxypropan-2-yl)thiazol-5-yl)(oxo)-λ^6-sulfaneylidene)-2-(4-((cyclopentyloxy)methyl)-2,6-diisopropylphenyl)acetamide] |
| 1 to 5 | CC(C)c1cc2c(c(C(C)C)c1CC(=O)N=S(N)(=O)c1cnc(C(C)(C)O)s1)CCC2 (stereo not drawn) [Example 142, N-(amino(2-(2-hydroxypropan-2-yl)thiazol-5-yl)(oxo)-λ^6-sulfaneylidene)-2-(4,6-diisopropyl-2,3-dihydro-1H-inden-5-yl)acetamide] |
| 1 to 5 | COc1cc(C(C)C)c(CC(=O)NS(=O)(=O)c2ncc(C(C)(C)O)s2)c(C(C)C)n1 [Example 143, 2-(2,4-diisopropyl-6-methoxypyridin-3-yl)-N-((5-(2-hydroxypropan-2-yl)thiazol-2-yl)sulfonyl)acetamide] |
| 5 to 30 | CC(C)c1ncc(F)c(C(C)C)c1CC(=O)N=S(N)(=O)c1ncc(C(C)(C)O)s1 (stereo not drawn) [Example 144, N-(amino(5-(2-hydroxypropan-2-yl)thiazol-2-yl)(oxo)-λ^6-sulfaneylidene)-2-(5-fluoro-2,4-diisopropylpyridin-3-yl)acetamide] |
| 0.2 to 1 | CC(C)c1ncc(F)c(C(C)C)c1CC(=O)N=S(N)(=O)c1cc(C(C)(C)O)cs1 (stereo not drawn) [Example 145, N-(amino(4-(2-hydroxypropan-2-yl)thiophen-2-yl)(oxo)-λ^6-sulfaneylidene)-2-(5-fluoro-2,4-diisopropylpyridin-3-yl)acetamide] |
| 5 to 30 | CC(C)c1ncc(F)c(C(C)C)c1CC(=O)N=S(N)(=O)c1cnc(C(C)(C)O)s1 (stereo not drawn) [Example 146, N-(amino(2-(2-hydroxypropan-2-yl)thiazol-5-yl)(oxo)-λ^6-sulfaneylidene)-2-(5-fluoro-2,4-diisopropylpyridin-3-yl)acetamide] |
| 1 to 5 | CC(C)c1ncc(F)c(C(C)C)c1CC(=O)N=S(N)(=O)c1nc(C(C)(C)O)cs1 (stereo not drawn) [Example 147, N-(amino(4-(2-hydroxypropan-2-yl)thiazol-2-yl)(oxo)-λ^6-sulfaneylidene)-2-(5-fluoro-2,4-diisopropylpyridin-3-yl)acetamide] |
| 5 to 30 | CC(C)c1ncc(F)c(C(C)C)c1CC(=O)N=S(N)(=O)c1ccn(C(C)C)n1 (stereo not drawn) [Example 148, N-(amino(1-isopropyl-1H-pyrazol-3-yl)(oxo)-λ^6-sulfaneylidene)-2-(5-fluoro-2,4-diisopropylpyridin-3-yl)acetamide] |
| 0.2 to 1 | CC(C)c1ncc(F)c(C(C)C)c1CC(=O)N=S(N)(=O)c1sc(C(C)(C)O)cc1F (stereo not drawn) [Example 149, N-(amino(3-fluoro-5-(2-hydroxypropan-2-yl)thiophen-2-yl)(oxo)-λ^6-sulfaneylidene)-2-(5-fluoro-2,4-diisopropylpyridin-3-yl)acetamide] |
| 5 to 30 | Cc1ncc(C(C)C)c(CC(=O)N=S(N)(=O)c2sc(C(C)(C)O)cc2F)c1C(C)C (stereo not drawn) [Example 150, N-(amino(3-fluoro-5-(2-hydroxypropan-2-yl)thiophen-2-yl)(oxo)-λ^6-sulfaneylidene)-2-(3,5-diisopropyl-2-methylpyridin-4-yl)acetamide] |
| 0.2 to 1 | CC(C)c1cc(C#N)nc(C(C)C)c1CC(=O)N=S(N)(=O)c1cc(C(C)(C)O)cs1 (stereo not drawn) [Example 151, N-(amino(4-(2-hydroxypropan-2-yl)thiophen-2-yl)(oxo)-λ^6-sulfaneylidene)-2-(6-cyano-2,4-diisopropylpyridin-3-yl)acetamide] |
| 0.2 to 1 | COCc1cc(C(C)C)c(CC(=O)N=S(N)(=O)c2cc(C(C)(C)O)cs2)c(C(C)C)n1 (stereo not drawn) [Example 152, N-(amino(4-(2-hydroxypropan-2-yl)thiophen-2-yl)(oxo)-λ^6-sulfaneylidene)-2-(2,4-diisopropyl-6-(methoxymethyl)pyridin-3-yl)acetamide] |
| 1 to 5 | CC(C)c1nc(C(F)(F)F)nc(C(C)C)c1CC(=O)N=S(N)(=O)c1cnc(C(C)(C)O)s1 (stereo not drawn) [Example 153, N-(amino(2-(2-hydroxypropan-2-yl)thiazol-5-yl)(oxo)-λ^6-sulfaneylidene)-2-(4,6-diisopropyl-2-(trifluoromethyl)pyrimidin-5-yl)acetamide] |
| 5 to 30 | CC(C)c1cnc(F)c(C(C)C)c1CC(=O)N=S(N)(=O)c1cnc(C(C)(C)O)s1 (stereo not drawn) [Example 154, N-(amino(2-(2-hydroxypropan-2-yl)thiazol-5-yl)(oxo)-λ^6-sulfaneylidene)-2-(2-fluoro-3,5-diisopropylpyridin-4-yl)acetamide] |

Continued, molecule first:

| SMILES | IC50 [µM] |
| --- | --- |
| CC(C)c1cc(F)c(F)c(C(C)C)c1CC(=O)N=S(N)(=O)c1nc(C(C)(C)O)cs1 (stereo not drawn) [Example 124, N-(amino(4-(2-hydroxypropan-2-yl)thiazol-2-yl)(oxo)-λ^6-sulfaneylidene)-2-(3,4-difluoro-2,6-diisopropylphenyl)acetamide] | 0.2 to 1 |
| CC(C)c1ccc(F)c(C(C)C)c1CC(=O)N=S(N)(=O)c1ccc(C(C)(C)O)s1 (stereo not drawn) [Example 125, N-(amino(5-(2-hydroxypropan-2-yl)thiophen-2-yl)(oxo)-λ^6-sulfaneylidene)-2-(3-fluoro-2,6-diisopropylphenyl)acetamide] | 0.2 to 1 |
| COc1ccc2cc(-c3cc(C(C)C)c(CC(=O)N=S(N)(=O)c4ncc(C(C)(C)O)s4)c(C(C)C)c3)ccc2c1 (stereo not drawn) [Example 126, N-(amino(5-(2-hydroxypropan-2-yl)thiazol-2-yl)(oxo)-λ^6-sulfaneylidene)-2-(2,6-diisopropyl-4-(6-methoxynaphthalen-2-yl)phenyl)acetamide] | 0.2 to 1 |
| CC(C)c1cc(F)cc(C(C)C)c1CC(=O)N=S(N)(=O)c1ncc(C(C)(C)C(=O)O)s1 (stereo not drawn) [Example 127, 2-(2-(N′-(2-(4-fluoro-2,6-diisopropylphenyl)acetyl)sulfamidimidoyl)thiazol-5-yl)-2-methylpropanoic acid] | 5 to 30 |
| CC(C)c1c(F)c(C#N)cc(C2CC2)c1CC(=O)N=S(N)(=O)c1ccc(CN(C)C)cc1F (stereo not drawn) [Example 128, N-(amino(4-((dimethylamino)methyl)-2-fluorophenyl)(oxo)-λ^6-sulfaneylidene)-2-(4-cyano-6-cyclopropyl-3-fluoro-2-isopropylphenyl)acetamide] | 0.2 to 1 |
| Cc1sc(S(N)(=O)=NC(=O)Cc2c(C(C)C)ccc(F)c2C(C)C)cc1C(C)(C)O (stereo not drawn) [Example 129, N-(amino(4-(2-hydroxypropan-2-yl)-5-methylthiophen-2-yl)(oxo)-λ^6-sulfaneylidene)-2-(3-fluoro-2,6-diisopropylphenyl)acetamide] | 0.04 to 0.2 |
| CC(C)c1ccc(F)c(C(C)C)c1CC(=O)N=S(N)(=O)c1ncc(C(C)(C)O)s1 (stereo not drawn) [Example 130, N-(amino(5-(2-hydroxypropan-2-yl)thiazol-2-yl)(oxo)-λ^6-sulfaneylidene)-2-(3-fluoro-2,6-diisopropylphenyl)acetamide] | 1 to 5 |
| CC(C)c1cc2c(c(C(C)C)c1CC(=O)N=S(N)(=O)c1cnc(C(C)(C)O)s1)COC2 (stereo not drawn) [Example 132, N-(amino(2-(2-hydroxypropan-2-yl)thiazol-5-yl)(oxo)-λ^6-sulfaneylidene)-2-(4,6-diisopropyl-1,3-dihydroisobenzofuran-5-yl)acetamide] | 1 to 5 |
| CC(C)c1cc(C#N)c(F)c(C(C)C)c1CC(=O)N=S(N)(=O)c1nc(C(C)(C)O)cs1 (stereo not drawn) [Example 133, N-(amino(4-(2-hydroxypropan-2-yl)thiazol-2-yl)(oxo)-λ^6-sulfaneylidene)-2-(4-cyano-3-fluoro-2,6-diisopropylphenyl)acetamide] | 0.2 to 1 |
| CC(C)c1cc2c(c(C(C)C)c1CC(=O)N=S(N)(=O)c1ccc(CN(C)C)cc1)COC2 (stereo not drawn) [Example 134] | 1 to 5 |
| CC(C)c1ccc2c(c1CC(=O)N=S(N)(=O)c1cnc(C(C)(C)O)s1)CCC2 (stereo not drawn) [Example 135, N-(amino(2-(2-hydroxypropan-2-yl)thiazol-5-yl)(oxo)-λ^6-sulfaneylidene)-2-(5-isopropyl-2,3-dihydro-1H-inden-4-yl)acetamide] | 1 to 5 |
| CC(C)c1cc(-c2ccc3ccccc3c2)cc(C(C)C)c1CC(=O)N=S(N)(=O)c1ccc(CN(C)C)cc1 (stereo not drawn) [Example 136, N-(amino(4-((dimethylamino)methyl)phenyl)(oxo)-λ^6-sulfaneylidene)-2-(2,6-diisopropyl-4-(naphthalen-2-yl)phenyl)acetamide] | 0.2 to 1 |
| CC(C)c1cc(-c2ccc3c(c2)CCOC3)cc(C(C)C)c1CC(=O)N=S(N)(=O)c1sc(C(C)(C)O)nc1CO (stereo not drawn) [Example 137, N-(amino(4-(hydroxymethyl)-2-(2-hydroxypropan-2-yl)thiazol-5-yl)(oxo)-λ^6-sulfaneylidene)-2-(4-(isochroman-6-yl)-2,6-diisopropylphenyl)acetamide] | 0.2 to 1 |
| CC(C)c1cc(-c2ccc3c(c2)CCOC3)cc(C(C)C)c1CC(=O)N=S(=O)(NC(=O)OC(C)(C)C)c1cnc(C(C)(C)O)s1 (stereo not drawn) [Example 138, tert-butyl (2-(2-hydroxypropan-2-yl)-N-(2-(4-(isochroman-6-yl)-2,6-diisopropylphenyl)acetyl)thiazole-5-sulfonimidoyl)carbamate] | 1 to 5 |
| CC(C)c1cc(-c2ccc3c(c2)CCOC3)cc(C(C)C)c1CC(=O)N=S(N)(=O)c1cnc(C(C)(C)O)s1 (stereo not drawn) [Example 139, N-(amino(2-(2-hydroxypropan-2-yl)thiazol-5-yl)(oxo)-λ^6-sulfaneylidene)-2-(4-(isochroman-6-yl)-2,6-diisopropylphenyl)acetamide] | 0.2 to 1 |
| CC(C)c1cc(COC2CCCC2)cc(C(C)C)c1CC(=O)N=S(=O)(NC(=O)OC(C)(C)C)c1cnc(C(C)(C)O)s1 (stereo not drawn) [Example 140, tert-butyl (N-(2-(4-((cyclopentyloxy)methyl)-2,6-diisopropylphenyl)acetyl)-2-(2-hydroxypropan-2-yl)thiazole-5-sulfonimidoyl)carbamate] | 0.2 to 1 |
